Data set [1] can be described thus: In vitro cytotoxicity in different cell lines using the CellTiter-Blue Cell Viability Assay. Particulars: Homo sapiens, read-out: Geomean IC50. The class given is cell-based, human. For orientation: Resazurin is reduced to fluorescent resorufin, in cell work by metabolically active cells.
Data set [2] is described as follows: Stability and release kinetics of maytansinoid-HSA conjugates in buffer solution at pH 4.0 and pH 7.4. The class given is physicochemical. Particulars: maytansinoid-HSA conjugate, PBS pH 7.4, 37° C. The method, then: For preparing HSA conjugates of albumin-binding maytansinoids, HSA (200 μM: 361.8 μL, 1078 μM free Cys34; 100 μM: 180.9 μL, 1078 μM free Cys34) was diluted with PBS buffer (4 mM sodium phosphate, 150 mM NaCl, pH 7.4) (200 μM: 678.2 μL; 100 μM: 859.1 μL) and DMSO (200 μM: 130.0 μL; 100 μM: 195.0 μL) and incubated in a heating block at 37° C. for 30 minutes. The albumin-binding maytansinoid was added as a 2 mM stock solution in DMSO (200 μM: 130.0 μL; 100 μM: 65.0 μL) to the preincubated HSA sample to produce a 200 μM or 100 μM solution of maytansinoid-prodrug and 300 μM or 150 μM of free Cys34. The mixture having a pH of 7.4 was allowed to react for 10 min at 37° C. and was then analyzed hourly for 24 hours by RP-HPLC (Phenomenex Aeris WP XB-C18, 3.6 μm, 250×4.6 mm).
For studying the release kinetics at pH 4.0 the mixture was acidified with a mixture of 50 mM sodium acetate buffer pH 3.0 (200 μM: 119.3 μL; 100 μM: 125.2 μL) and 1 M HCl (200 μM: 12.7 μL; 100 μM: 6.8 μL) to reach pH 4.0. The mixture was subsequently analyzed hourly for 24 hours by RP-HPLC (Phenomenex Aeris WP XB-C18, 3.6 μm, 250×4.6 mm).
The following RP-HPLC conditions were used: Phenomenex Aeris WP XB-C18 3.6 μm, 250×4.6 mm; eluent A (100% 20 mM Tris buffer pH 8.0) and eluent B (90:10, MeCN: water) eluting with a gradient of eluent B (25% 0-0.5 min, 25-35% 0.5-2.5 min, 35-85% 2.5-16 min, 85-95% 16-17 min, 95% 17-20 min, 95-25% 20-25 min, 25% 25-30 min, flow rate 1.0 mL/min). Column oven temperature 37° C.; autosampler temperature 37° C.; 20 μL of injection volume.
To quantify the percentage of free drug released, standard curves of the free maytansinoids were prepared at different concentrations (200 μM, 100 μM, 50 μM, 25 μM and 12.5 μM). The area under the curve (AUC) was determined at 250 nm.

Like-named read-outs stand apart in the source and are kept apart here. Marks after values point to notes of the source that are not given here.

Consider 30 molecules from patent publication US11572373B2, “Maytansinoid-based drug delivery systems” (LADRX CORPORATION, priority 2017, dated 2023).

The IC50 is the concentration needed to halve the response being measured. Take `COc1cc2cc(c1Cl)N(C)C(=O)C[C@H](OC(=O)CN(C)C(=O)c1ccc(C(C)=O)cc1)[C@]1(C)O[C@H]1[C@H](C)[C@@H]1C[C@@](O)(NC(=O)O1)[C@H](OC)/C=C/C=C(\C)C2` [Compound 25]: the IC50 in data set [1] (96 h) is 8.47 nM.
For `COc1cc2cc(c1Cl)N(C)C(=O)C[C@H](OC(=O)Cc1ccc(C(C)=O)c(F)c1)[C@]1(C)O[C@H]1[C@H](C)[C@@H]1C[C@@](O)(NC(=O)O1)[C@H](OC)/C=C/C=C(\C)C2` [Compound 5], the IC50 in data set [1] (96 h) worked out at 0.9 nM.
Same read-out and setting: next, `COc1cc2cc(c1Cl)N(C)C(=O)C[C@H](OC(=O)[C@H](C)N(C)C(=O)c1ccc(C(C)=O)cc1)[C@]1(C)O[C@H]1[C@H](C)[C@@H]1C[C@@](O)(NC(=O)O1)[C@H](OC)/C=C/C=C(\C)C2` [Compound 24]: 9.04 nM.
Consider `COc1cc2cc(c1Cl)N(C)C(=O)C[C@H](OC(=O)C1CCCN1C(=O)c1ccc(C(C)=O)cc1)[C@]1(C)O[C@H]1[C@H](C)[C@@H]1C[C@@](O)(NC(=O)O1)[C@H](OC)/C=C/C=C(\C)C2` (stereo partly drawn) [Compound 20], for which the IC50 in data set [1] (96 h) was 0.94 nM.
Same read-out and setting: next, `COc1cc2cc(c1Cl)N(C)C(=O)C[C@H](OC(=O)CSc1ccc(C(C)=O)cc1C(F)(F)F)[C@]1(C)O[C@H]1[C@H](C)[C@@H]1C[C@@](O)(NC(=O)O1)[C@H](OC)/C=C/C=C(\C)C2` [Compound 13]: 0.88 nM.
On to `COc1cc2cc(c1Cl)N(C)C(=O)C[C@H](OC(=O)COc1cccc(/C(C)=N/NC(=O)c3ccc(NC(=O)CCNC(=O)[C@H](CS(=O)(=O)O)NC(=O)CCCCCN4C(=O)C=CC4=O)cc3[N+](=O)[O-])c1)[C@]1(C)O[C@H]1[C@H](C)[C@@H]1C[C@@](O)(NC(=O)O1)[C@H](OC)/C=C/C=C(\C)C2` [Compound 42], for which the “free maytansinoid after 24 h at pH 7.4” value in data set [2] (measured at 100 μM) was 4.8%**.
With `COc1cc2cc(c1Cl)N(C)C(=O)C[C@H](OC(=O)Cc1ccc(/C(C)=N/NC(=O)c3ccc(NC(=O)CCCCCN4C(=O)C=CC4=O)cc3S(=O)(=O)O)cc1)[C@]1(C)O[C@H]1[C@H](C)[C@@H]1C[C@@](O)(NC(=O)O1)[C@H](OC)/C=C/C=C(\C)C2` [Compound 32], in data set [2] (measured at 200 μM), the “free maytansinoid after 24 h at pH 7.4” value is recorded as 9.5%*.
As for `COc1cc2cc(c1Cl)N(C)C(=O)C[C@H](OC(=O)CCNC(=O)c1ccc(C(C)=O)cc1)[C@]1(C)O[C@H]1[C@H](C)[C@@H]1C[C@@](O)(NC(=O)O1)[C@H](OC)/C=C/C=C(\C)C2` [Compound 27], in data set [1] (96 h), the IC50 came to 11.7 nM.
Regarding `COc1cc2cc(c1Cl)N(C)C(=O)C[C@H](OC(=O)Cc1ccc(C(C)=O)cc1[N+](=O)[O-])[C@]1(C)O[C@H]1[C@H](C)[C@@H]1C[C@@](O)(NC(=O)O1)[C@H](OC)/C=C/C=C(\C)C2` [Compound 6], in data set [1] (96 h), the half-inhibitory concentration (IC50) was 2.14 nM.
As for `COc1cc2cc(c1Cl)N(C)C(=O)C[C@H](OC(=O)COc1ccc(C(C)=O)cc1)[C@]1(C)O[C@H]1[C@H](C)[C@@H]1C[C@@](O)(NC(=O)O1)[C@H](OC)/C=C/C=C(\C)C2` [Compound 18], the IC50 in data set [1] (96 h) stood at 0.13 nM.
With `COc1cc2cc(c1Cl)N(C)C(=O)C[C@H](OC(=O)CN(C)c1ccc(/C(C)=N/NC(=O)c3ccc(NC(=O)CCCCCN4C(=O)C=CC4=O)cc3S(=O)(=O)O)cc1)[C@]1(C)O[C@H]1[C@H](C)[C@@H]1C[C@@](O)(NC(=O)O1)[C@H](OC)/C=C/C=C(\C)C2` [Compound 40], the “free maytansinoid after 24 h at pH 7.4” value in data set [2] (measured at 200 μM) came out at 8.9%*.
Take `COc1cc2cc(c1Cl)N(C)C(=O)C[C@H](OC(=O)CSc1ccc(C(C)=O)cc1Cl)[C@]1(C)O[C@H]1[C@H](C)[C@@H]1C[C@@](O)(NC(=O)O1)[C@H](OC)/C=C/C=C(\C)C2` [Compound 15]: in data set [1] (96 h), the IC50 turned out to be 0.18 nM.
As to `COc1cc2cc(c1Cl)N(C)C(=O)C[C@H](OC(=O)CN(C)C(=O)c1ccc(C(C)=O)nc1)[C@]1(C)O[C@H]1[C@H](C)[C@@H]1C[C@@](O)(NC(=O)O1)[C@H](OC)/C=C/C=C(\C)C2` [Compound 26], the IC50 in data set [1] (96 h) amounted to 18.5 nM.
As for `COc1cc2cc(c1Cl)N(C)C(=O)C[C@H](OC(=O)CSc1ccc(C(C)=O)cc1)[C@]1(C)O[C@H]1[C@H](C)[C@@H]1C[C@@](O)(NC(=O)O1)[C@H](OC)/C=C/C=C(\C)C2` [Compound 11], in data set [1] (96 h), the IC50 came out at 0.21 nM.
Consider `COc1cc2cc(c1Cl)N(C)C(=O)C[C@H](OC(=O)CSc1ccc(/C(C)=N/NC(=O)c3ccc(NC(=O)CCCCCN4C(=O)C=CC4=O)cc3S(=O)(=O)O)cc1)[C@]1(C)O[C@H]1[C@H](C)[C@@H]1C[C@@](O)(NC(=O)O1)[C@H](OC)/C=C/C=C(\C)C2` [Compound 37], for which the “free maytansinoid after 24 h at pH 7.4” value in data set [2] (measured at 200 μM) was determined as 3.9%*.
Regarding `COc1cc2cc(c1Cl)N(C)C(=O)C[C@H](OC(=O)CN(C)c1ccc(C(C)=O)cc1)[C@]1(C)O[C@H]1[C@H](C)[C@@H]1C[C@@](O)(NC(=O)O1)[C@H](OC)/C=C/C=C(\C)C2` [Compound 10], the IC50 in data set [1] (96 h) is 0.3 nM.
For `COc1cc2cc(c1Cl)N(C)C(=O)C[C@H](OC(=O)CSc1ccc(C(C)=O)cc1[N+](=O)[O-])[C@]1(C)O[C@H]1[C@H](C)[C@@H]1C[C@@](O)(NC(=O)O1)[C@H](OC)/C=C/C=C(\C)C2` [Compound 14], the IC50 in data set [1] (96 h) turned out to be 1.54 nM.
On to `COc1cc2cc(c1Cl)N(C)C(=O)CC(O)C1(C)OC1C(C)C1CC(O)(NC(=O)O1)C(OC)/C=C/C=C(\C)C2` (stereo not drawn) [Maytansinol, reference compound], for which the IC50 in data set [1] (geometric mean over the n cell lines tested, 96 h treatment, CellTiter-Blue) was 86 nM.
On to `COc1cc2cc(c1Cl)N(C)C(=O)C[C@H](OC(=O)CCCc1ccc(C(C)=O)cc1)[C@]1(C)O[C@H]1[C@H](C)[C@@H]1C[C@@](O)(NC(=O)O1)[C@H](OC)/C=C/C=C(\C)C2` [Compound 8], for which the IC50 in data set [1] (96 h) came to 0.1 nM.
On the same count and under the same terms, next, `CCN(CC(=O)O[C@H]1CC(=O)N(C)c2cc(cc(OC)c2Cl)C/C(C)=C/C=C/[C@@H](OC)[C@@]2(O)C[C@H](OC(=O)N2)[C@@H](C)[C@@H]2O[C@@]12C)C(=O)c1ccc(C(C)=O)cc1` [Compound 22]: 25 nM.
Same read-out and setting: next, `COc1cc2cc(c1Cl)N(C)C(=O)C[C@H](OC(=O)Cc1ccc(C(C)=O)c([N+](=O)[O-])c1)[C@]1(C)O[C@H]1[C@H](C)[C@@H]1C[C@@](O)(NC(=O)O1)[C@H](OC)/C=C/C=C(\C)C2` [Compound 7]: 0.89 nM; `COc1cc2cc(c1Cl)N(C)C(=O)C[C@H](OC(=O)C1CCCN1C(=O)Nc1ccc(C(C)=O)cc1)[C@]1(C)O[C@H]1[C@H](C)[C@@H]1C[C@@](O)(NC(=O)O1)[C@H](OC)/C=C/C=C(\C)C2` (stereo partly drawn) [Compound 23]: 26.8 nM; `COc1cc(C(C)=O)ccc1SCC(=O)O[C@H]1CC(=O)N(C)c2cc(cc(OC)c2Cl)C/C(C)=C/C=C/[C@@H](OC)[C@@]2(O)C[C@H](OC(=O)N2)[C@@H](C)[C@@H]2O[C@@]12C` [Compound 17]: 0.45 nM.
Same read-out and setting: next, `COc1cc2cc(c1Cl)N(C)C(=O)C[C@H](OC(=O)C(C)(C)Oc1ccc(C(C)=O)cc1)[C@]1(C)O[C@H]1[C@H](C)[C@@H]1C[C@@](O)(NC(=O)O1)[C@H](OC)/C=C/C=C(\C)C2` [Compound 19]: 1.12 nM; `COc1cc2cc(c1Cl)N(C)C(=O)C[C@H](OC(=O)CSc1ccc(C(C)=O)cc1C)[C@]1(C)O[C@H]1[C@H](C)[C@@H]1C[C@@](O)(NC(=O)O1)[C@H](OC)/C=C/C=C(\C)C2` [Compound 12]: 0.76 nM; `COc1cc2cc(c1Cl)N(C)C(=O)C[C@H](OC(=O)Nc1ccc(C(C)=O)cc1)[C@]1(C)O[C@H]1[C@H](C)[C@@H]1C[C@@](O)(NC(=O)O1)[C@H](OC)/C=C/C=C(\C)C2` [Compound 28]: 10.6 nM.
For `COc1cc2cc(c1Cl)N(C)C(=O)C[C@H](OC(=O)CSc1ccc(C(C)=O)cc1Br)[C@]1(C)O[C@H]1[C@H](C)[C@@H]1C[C@@](O)(NC(=O)O1)[C@H](OC)/C=C/C=C(\C)C2` [Compound 16], the IC50 in data set [1] (96 h) was 0.32 nM.
The same measure, in the same setting: the same measure for `COc1cc2cc(c1Cl)N(C)C(=O)C[C@H](OC(=O)[C@H](C)N(C)C(=O)CCC(C)=O)[C@]1(C)O[C@H]1[C@H](C)[C@@H]1C[C@@](O)(NC(=O)O1)[C@H](OC)/C=C/C=C(\C)C2` [Compound 44]: 7.21 nM; for `COc1cc2cc(c1Cl)N(C)C(=O)C[C@H](OC(=O)CCc1ccc(C(C)=O)cc1)[C@]1(C)O[C@H]1[C@H](C)[C@@H]1C[C@@](O)(NC(=O)O1)[C@H](OC)/C=C/C=C(\C)C2` [Compound 9]: 0.19 nM.
In the case of `COc1cc2cc(c1Cl)N(C)C(=O)C[C@H](OC(=O)CNC(=O)c1ccc(C(C)=O)cc1)[C@]1(C)O[C@H]1[C@H](C)[C@@H]1C[C@@](O)(NC(=O)O1)[C@H](OC)/C=C/C=C(\C)C2` [Compound 21], in data set [1] (96 h), the IC50 was 1.67 nM.
